Experimental findings from US20160340674A1, “Compositions and Methods to Inhibit EZH2 for the Treatment of Cardiovascular Diseases” (UNIVERSITY OF ROCHESTER, priority 2014, published 2016) are described below.

The test system of this experiment is human umbilical vein endothelial cells (HUVECs). The experiment can be described thus: KLF2 and eNOS gene expression in endothelial cells treated with GSK126 (RT-PCR and q-PCR). Format: cell-based. The source says: Experiments were designed to determine the effects of the EZH2 inhibitor GSK126 on expression of genes KLF2 and eNOS in endothelial cells. Histone methylation is an important epigenetic modification. Histone 3 lysine 27 (H3K27) is correlated with transcriptional repression. EZH2, a histone methytransferase, is critical for the epigenetic maintenance of the H3K27me3 repressive chromatin mark. To determine whether the alternation of histone methylation affects gene expression in endothelial cells, experiments were designed to assess the effects of an EZH2 inhibitor GSK126. […]

[1] abbreviates: 0.02 μM GSK126 for different times, RT-PCR and q-PCR (FIG. 1).

Regarding `CC[C@H](C)n1cc(C)c2c(C(=O)NCc3c(C)cc(C)[nH]c3=O)cc(-c3ccc(N4CCNCC4)nc3)cc21` [GSK126, (S)-1-(sec-butyl)-N-((4,6-dimethyl-2-oxo-1,2-dihydropyridin-3-yl)methyl)-3-methyl-6-(6-(piperazin-1-yl)pyridin-3-yl)-1H-indole-4-carboxamide], under setting [1], the “level of KLF2 mRNA” value was “increased” and the “level of eNOS mRNA” value is given as “increased”. Also, the KLF2 expression result (24 hours at different concentrations (FIG. 2A)) is listed as “dose-dependently increased”. Besides, the eNOS expression result (24 hours at different concentrations (FIG. 2B)) is on record as “dose-dependently increased”.
